Measurements reported in article PMC6264139, “Schiff Bases of Indoline-2,3-dione: Potential Novel Inhibitors of Mycobacterium Tuberculosis (Mtb) DNA Gyrase ^†” (Molecules, 2011).
Several values for one entry are separate records, joined by “and”; a condition that tells them apart may be missing. Equal entries are not always repeated. Where two headings read alike, the source gives them in different places.

Target: Mtb DNA gyrase (Mycobacterium tuberculosis, UniProt P9WG45+P9WG47)
Test: Mtb DNA gyrase supercoiling inhibition assay
Assay type: biochemical, Mycobacterium tuberculosis strain H37RV
Conditions: 60 minutes at 37 °C, inhibitor 1.56 to 200 µM
Procedure: Two-fold increases in inhibitor concentrations ranging from 1.56 to 200 µM were added to pBR322 relaxed DNA in the presence of Mtb DNA gyrase enzyme. Control lanes are: Lane 1, DNA with no enzyme or inhibitor and Lane 2, DNA with enzyme but no inhibitor. IC50 values were calculated by measurement of fluorescence intensity after ethidium bromide staining of the supercoiling band at the bottom of the lanes. […] (b) IC50 curves of supercoiling (SC) fluorescence data. DNA fluorescence was quantitated with an Alpha Imager 2200 Analysis System (Cell Biosciences, Santa Clara, CA, USA) and IC50 values were determined by nonlinear regression analysis with Graphpad Prism software (Graphpad Software, Inc., San Diego, CA, USA). IDV = Integrated Density Value.
The isatin Schiff bases synthesized and characterized in this report were tested for their ability to inhibit supercoiling activity of DNA gyrase. DNA gyrase is the only enzyme known so far having the ability to introduce negative supercoils in DNA. In all the species of mycobacteria, including Mtb, DNA gyrase is the sole type II topoisomerase carrying out the reactions of both gyrase and topoisomerase IV. Since the DNA gyrase from Mtb and M. smegmatis are highly similar at a functional as well as a protein sequence level and antigenic properties, Mtb strain H37RV DNA gyrase has been used for carrying out the supercoiling assays.
Relaxed pBR322 DNA (0.1 µg) was incubated with 1 unit of Mtb DNA gyrase for 60 minutes at 37 °C in the following buffer: 2 mM ATP, 4 mM DTT, 25 mM KCl, 6 mM magnesium acetate, 50 µg/mL of molecular grade BSA, 0.1 mg/mL E. coli tRNA, 2mM spermidine, 100 mM potassium glutamate and 40 mM Tris-HCL pH 7.5 (20 µL). Reactions are stopped with 0.5% SDS, 6 mM EDTA, 5.35% glycerol, and 0.013% bromophenol blue (10 µL). Reactions are then loaded onto a 1% agarose/ TBE gel to separate supercoiled and relaxed DNA forms and run overnight at 22 volts. Bands are visualized by staining with 0.5 µg/mL EtBr in 1 × TBE for 40 minutes then washing with dH2O for 120 minutes. Quantification is done on the AlphaImager 2200 system. DNA gyrase subunits, GyrA and GyrB, were isolated from Mtb strain H37RV genomic DNA, expressed and purified in pET overexpression constructs in E coli. One unit of DNA supercoiling activity is defined as the amount that converts ~50% relaxed DNA, in the standard assay, to supercoiled DNA in 60 minutes at 37 °C.

[1] = Mtb wt gyrase IC50, supercoiling of relaxed pBR322 DNA

Chain of Mtb DNA gyrase (P9WG45 whole entry): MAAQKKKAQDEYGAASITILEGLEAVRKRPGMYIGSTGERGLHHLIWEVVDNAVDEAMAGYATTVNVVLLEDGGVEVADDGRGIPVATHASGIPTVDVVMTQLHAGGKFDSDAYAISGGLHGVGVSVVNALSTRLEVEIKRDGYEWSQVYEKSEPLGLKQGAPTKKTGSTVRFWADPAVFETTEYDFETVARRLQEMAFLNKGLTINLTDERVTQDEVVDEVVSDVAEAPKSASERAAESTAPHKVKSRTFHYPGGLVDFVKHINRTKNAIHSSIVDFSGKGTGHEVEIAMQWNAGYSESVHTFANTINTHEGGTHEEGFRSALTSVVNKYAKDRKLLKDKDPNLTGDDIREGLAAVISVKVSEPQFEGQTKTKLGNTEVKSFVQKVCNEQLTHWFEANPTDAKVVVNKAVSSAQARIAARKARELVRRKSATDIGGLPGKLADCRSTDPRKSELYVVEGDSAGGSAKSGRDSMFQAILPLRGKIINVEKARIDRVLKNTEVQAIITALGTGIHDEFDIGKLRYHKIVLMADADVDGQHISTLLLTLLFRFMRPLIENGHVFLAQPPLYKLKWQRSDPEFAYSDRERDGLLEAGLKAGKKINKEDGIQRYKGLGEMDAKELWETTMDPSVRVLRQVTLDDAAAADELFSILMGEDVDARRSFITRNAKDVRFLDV
Chain of Mtb DNA gyrase (P9WG47 whole entry): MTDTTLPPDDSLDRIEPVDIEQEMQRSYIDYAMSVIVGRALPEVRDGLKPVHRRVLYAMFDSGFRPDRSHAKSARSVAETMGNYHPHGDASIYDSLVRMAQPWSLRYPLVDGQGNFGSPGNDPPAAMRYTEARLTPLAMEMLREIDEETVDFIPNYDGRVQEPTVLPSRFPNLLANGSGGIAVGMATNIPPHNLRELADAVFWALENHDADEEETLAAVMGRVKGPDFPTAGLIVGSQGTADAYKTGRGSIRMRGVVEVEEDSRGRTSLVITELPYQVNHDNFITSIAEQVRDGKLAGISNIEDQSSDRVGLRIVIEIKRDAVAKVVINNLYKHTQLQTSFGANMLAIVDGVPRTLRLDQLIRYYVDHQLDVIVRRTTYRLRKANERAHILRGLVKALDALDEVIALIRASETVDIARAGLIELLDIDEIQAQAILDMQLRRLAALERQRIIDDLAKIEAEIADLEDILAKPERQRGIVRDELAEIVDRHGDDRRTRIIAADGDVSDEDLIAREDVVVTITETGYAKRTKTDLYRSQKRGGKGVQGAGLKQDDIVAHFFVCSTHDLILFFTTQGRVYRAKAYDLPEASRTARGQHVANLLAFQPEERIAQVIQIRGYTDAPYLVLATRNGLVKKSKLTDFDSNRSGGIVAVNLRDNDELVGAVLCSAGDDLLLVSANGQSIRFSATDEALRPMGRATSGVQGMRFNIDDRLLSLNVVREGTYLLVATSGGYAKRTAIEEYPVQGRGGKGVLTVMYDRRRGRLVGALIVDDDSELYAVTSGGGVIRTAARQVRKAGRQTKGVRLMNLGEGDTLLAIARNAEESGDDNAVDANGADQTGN

SMILES | IC50 [1] | IC50 (supercoiling of relaxed pBR322 DNA, read-out: Mtb wt gyrase IC50) [µM]
O=C1Nc2ccccc2/C1=N/NC(=O)c1ccncc1 [Compound 3, (Z)-N'-(2-Oxoindolin-3-ylidene)isonicotinohydrazide] | > 200 µM | 
O=C1Nc2ccc(Cl)cc2/C1=N/NC(=O)c1ccncc1 [Compound 4, (Z)-N'-(5-Chloro-2-oxoindolin-3-ylidene)isonicotinohydrazide] | > 200 µM | 
O=C1Nc2ccc(F)cc2/C1=N/NC(=O)c1ccncc1 [Compound 5, (Z)-N'-(5-Fluoro-2-oxoindolin-3-ylidene)isonicotinohydrazide] | > 200 µM | 
Cc1ccc2c(c1)/C(=N/NC(=O)c1ccncc1)C(=O)N2 [Compound 6, (Z)-N'-(5-Methyl-2-oxoindolin-3-ylidene)isonicotinohydrazide] | > 200 µM | 
O=C1Nc2ccc(OC(F)(F)F)cc2/C1=N/NC(=O)c1ccncc1 [Compound 7, (Z)-N'-(2-Oxo-5-(trifluoromethoxy)indolin-3-ylidene)isonicotinohydrazide] | > 200 µM | 
O=C1Nc2ccc([N+](=O)[O-])cc2/C1=N/NC(=O)c1ccncc1 [Compound 8, (Z)-N'-(5-Nitro-2-oxoindolin-3-ylidene)isonicotinohydrazide] | 157 µM | 
O=C(N/N=C1\C(=O)N(c2ccccc2)c2ccccc21)c1ccncc1 [Compound 9, (Z)-N'-(2-Oxo-1-phenylindolin-3-ylidene)isonicotinohydrazide] | > 200 µM | 
O=C(N/N=C1\C(=O)N(Cc2ccccc2)c2ccccc21)c1ccncc1 [Compound 10, (Z)-N'-(1-Benzyl-2-oxoindolin-3-ylidene)isonicotinohydrazide] | > 200 µM | 
O=C(N/N=C1\C(=O)N(Cc2ccccc2)c2ccc(Cl)cc21)c1ccncc1 [Compound 11, (Z)-N'-(1-Benzyl-5-chloro-2-oxoindolin-3-ylidene)isonicotinohydrazide] | > 200 µM | 
O=C(N/N=C1\C(=O)N(Cc2ccccc2)c2ccc(F)cc21)c1ccncc1 [Compound 12, (Z)-N'-(1-Benzyl-5-fluoro-2-oxoindolin-3-ylidene)isonicotinohydrazide] | > 200 µM | 
Cc1ccc2c(c1)/C(=N/NC(=O)c1ccncc1)C(=O)N2Cc1ccccc1 [Compound 13, (Z)-N'-(1-Benzyl-5-methyl-2-oxoindolin-3-ylidene)isonicotinohydrazide] | > 200 µM | 
O=C1Nc2ccccc2/C1=N/NC(=O)c1cccnc1 [Compound 14, (Z)-N'-(2-Oxoindolin-3-ylidene)nicotinohydrazide] | > 200 µM | 
O=C1Nc2ccc(F)cc2/C1=N/NC(=O)c1ccco1 [Compound 15, (Z)-N'-(5-Fluoro-2-oxoindolin-3-ylidene)furan-2-carbhydrazide] | > 200 µM | 
O=C1Nc2ccccc2/C1=N/NC(=O)c1ccc([N+](=O)[O-])o1 [Compound 16, (Z)-5-Nitro-N'-(2-Oxoindolin-3-ylidene)furan-2-carbohydrazide] | > 200 µM | 
O=C1Nc2ccc(Cl)cc2/C1=N/NC(=O)c1cc2ccccc2o1 [Compound 17, (Z)-N'-(5-Chloro-2-oxoindolin-3-ylidene)benzofuran-2-carbohydrazide] | > 200 µM and 294 µM | 
Cc1ccc2c(c1)/C(=N/NC(=O)c1cc3ccccc3o1)C(=O)N2 [Compound 18, (Z)-N'-(5-Methyl-2-oxoindolin-3-ylidene)benzofuran-2-carbohydrazide] | ~50 µM and 56.3 µM | 
O=C1Nc2ccc([N+](=O)[O-])cc2/C1=N/NC(=O)c1cc2ccccc2o1 [Compound 19, (Z)-N'-(5-Nitro-2-oxoindolin-3-ylidene)benzofuran-2-carbohydrazide] | 89.9 µM | 
O=C(N/N=C1\C(=O)N(c2ccccc2)c2ccccc21)c1cc2ccccc2o1 [Compound 20, (Z)-N'-(2-Oxo-1-phenylindolin-3-ylidene)benzofuran-2-carbohydrazide] | > 200 µM | 
O=C1Nc2ccc(F)cc2/C1=N/NC(=O)c1cc2cc([N+](=O)[O-])ccc2o1 [Compound 21, (Z)-N'-(5-Fluoro-2-oxoindolin-3-ylidene)-5-nitrobenzofuran-2-carbhydrazide] | > 200 µM | 
O=C1/C(=N\NC(=O)C23CC4CC(CC(C4)C2)C3)c2ccccc2N1c1ccccc1 [Compound 22, (Z)-N'-(2-oxo-1-phenylindolin-3-ylidene)adamantane-1-carbohydrazide] |  | > 200
Cc1cccc(Nc2ccccc2C(=O)N/N=C2\C(=O)N(Cc3ccccc3)c3ccccc32)c1C [Compound 23, (Z)-N'-(1-Benzyl-2-oxoindolin-3-ylidene)-2-(2,3-dimethylphenylamino)benzohydrazide] | > 200 µM | 
Cc1ccc2c(c1)/C(=N/NC(=O)c1ccccc1Nc1c(Cl)ccc(C)c1Cl)C(=O)N2 [Compound 24, (Z)-2-(2,6-Dichloro-3-methylphenylamino)-N'-(5-methyl-2-oxoindolin-3-ylidene)-benzohydrazide] | > 200 µM | 
O=C1Nc2ccc(OC(F)(F)F)cc2/C1=N/NC(=O)c1ccccc1Nc1cccc(C(F)(F)F)c1 [Compound 25, (Z)-N'-(2-Oxo-5-(trifluoromethoxy)indolin-3-ylidene)-2-(3-(trifluoromethyl)phenylamino)-benzo-hydrazide] | > 200 µM | 
CCn1cc(C(=O)N/N=C2\C(=O)Nc3ccc(F)cc32)c(=O)c2ccc(C)nc21 [Compound 26, (Z)-1-Ethyl-N'-(5-fluoro-2-oxoindolin-3-ylidene)-7-methyl-4-oxo-1,4-dihydro-1,8-naphthyridine-3-carbohydrazide] | > 200 µM | 
